Tested on: PANC-1 complex spheroid growth, percent test/control
Test: Anticancer human tumor PANC-1 cell line growth inhibition [Asc];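 also: spheroids exposed to agents for 7 days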;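 as to viability, T/C: percent viability relative to DMSO vehicle wells taken as 100%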
Conditions: for IC50: curve of first compound; for viability, T/C: stronger effect = lower value; active = viability on the fitted dose curve at most 10% of control; inactive = the rest
How it was run: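 Concentration series start at each agent's clinical Cmax, or at 10 microM when none is established, and drop in half-log steps; agents are applied alone or together to complex spheroids built with HUVEC and hMSC.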

COc1c(OCCCN2CCOCC2)ccc2c3n(c(=NC(=O)c4cnc(N)nc4)nc12)CCN3 + CCN1C(C(=O)NC23CCC(C(=O)O)(CC2)CC3)C(c2cccc(Cl)c2F)C2(C(=O)Nc3cc(Cl)ccc32)C12CCCCC2
0.423 µM: IC50 (second compound 0.03 µM)
inactive: viability, T/C (second compound 0.00949 µM, first compound 0.00316 µM) 87.6% | viability, T/C (second compound 0.00949 µM, first compound 0.01 µM) 96.3% | viability, T/C (second compound 0.00949 µM, first compound 0.0316 µM) 101% | viability, T/C (second compound 0.00949 µM, first compound 0.1 µM) 85.2% | viability, T/C (second compound 0.00949 µM, first compound 0.316 µM) 50.2% | viability, T/C (second compound 0.00949 µM, first compound 1 µM) 30.3% | viability, T/C (second compound 0.03 µM, first compound 0.00316 µM) 91.7% | viability, T/C (second compound 0.03 µM, first compound 0.01 µM) 91.1% | viability, T/C (second compound 0.03 µM, first compound 0.0316 µM) 97.2% | viability, T/C (second compound 0.03 µM, first compound 0.1 µM) 76.7% | viability, T/C (second compound 0.03 µM, first compound 0.316 µM) 56% | viability, T/C (second compound 0.03 µM, first compound 1 µM) 35.8% | viability, T/C (second compound 0.0949 µM, first compound 0.00316 µM) 94.9% | viability, T/C (second compound 0.0949 µM, first compound 0.01 µM) 101% | viability, T/C (second compound 0.0949 µM, first compound 0.0316 µM) 92.5% | viability, T/C (second compound 0.0949 µM, first compound 0.1 µM) 70.5% | viability, T/C (second compound 0.0949 µM, first compound 0.316 µM) 47.9% | viability, T/C (second compound 0.0949 µM, first compound 1 µM) 31.2% | viability, T/C (second compound 0.3 µM, first compound 0.00316 µM) 110% | viability, T/C (second compound 0.3 µM, first compound 0.01 µM) 106% | viability, T/C (second compound 0.3 µM, first compound 0.0316 µM) 95.2% | viability, T/C (second compound 0.3 µM, first compound 0.1 µM) 77.1% | viability, T/C (second compound 0.3 µM, first compound 0.316 µM) 47.5% | viability, T/C (second compound 0.3 µM, first compound 1 µM) 35.8% | viability, T/C (second compound 0.949 µM, first compound 0.00316 µM) 108% | viability, T/C (second compound 0.949 µM, first compound 0.01 µM) 96.7% | viability, T/C (second compound 0.949 µM, first compound 0.0316 µM) 95.6% | viability, T/C (second compound 0.949 µM, first compound 0.1 µM) 75.3% | viability, T/C (second compound 0.949 µM, first compound 0.316 µM) 45.9% | viability, T/C (second compound 0.949 µM, first compound 1 µM) 34.5% | viability, T/C (second compound 3 µM, first compound 0.00316 µM) 118% | viability, T/C (second compound 3 µM, first compound 0.01 µM) 109% | viability, T/C (second compound 3 µM, first compound 0.0316 µM) 92% | viability, T/C (second compound 3 µM, first compound 0.1 µM) 79.3% | viability, T/C (second compound 3 µM, first compound 0.316 µM) 42.2% | viability, T/C (second compound 3 µM, first compound 1 µM) 32.5%
0.267 µM: IC50 (second compound 0.0949 µM)
0.315 µM: IC50 (second compound 0.00949 µM)
0.279 µM: IC50 (second compound 0.949 µM)
0.284 µM: IC50 (second compound 3 µM)
0.306 µM: IC50 (second compound 0.3 µM)

NC(=O)C(=Cn1cnc(-c2cc(C(F)(F)F)cc(C(F)(F)F)c2)n1)c1cncnc1 + Cc1c(S(C)(=O)=O)c(-c2cc(F)cc(N3CCN(c4ccc(NS(=O)(=O)c5ccc(NC(CCN6CCC(C(=O)OCCCP(=O)(O)O)CC6)CSc6ccccc6)c(S(=O)(=O)C(F)(F)F)c5)cc4)CC3)c2)c(-c2ccc(Cl)cc2)n1C(C)C
> 0.3 µM: IC50 (second compound 0.0316 µM) | IC50 (second compound 0.1 µM) | IC50 (second compound 0.316 µM) | IC50 (second compound 1 µM) | IC50 (second compound 3.16 µM) | IC50 (second compound 10 µM)
inactive: viability, T/C (second compound 0.0316 µM, first compound 0.000949 µM) 103% | viability, T/C (second compound 0.0316 µM, first compound 0.003 µM) 90.5% | viability, T/C (second compound 0.0316 µM, first compound 0.00949 µM) 93.7% | viability, T/C (second compound 0.0316 µM, first compound 0.03 µM) 91% | viability, T/C (second compound 0.0316 µM, first compound 0.0949 µM) 118% | viability, T/C (second compound 0.0316 µM, first compound 0.3 µM) 90.8% | viability, T/C (second compound 0.1 µM, first compound 0.000949 µM) 96.3% | viability, T/C (second compound 0.1 µM, first compound 0.003 µM) 102% | viability, T/C (second compound 0.1 µM, first compound 0.00949 µM) 97.4% | viability, T/C (second compound 0.1 µM, first compound 0.03 µM) 102% | viability, T/C (second compound 0.1 µM, first compound 0.0949 µM) 121% | viability, T/C (second compound 0.1 µM, first compound 0.3 µM) 84.3% | viability, T/C (second compound 0.316 µM, first compound 0.000949 µM) 105% | viability, T/C (second compound 0.316 µM, first compound 0.003 µM) 93.6% | viability, T/C (second compound 0.316 µM, first compound 0.00949 µM) 101% | viability, T/C (second compound 0.316 µM, first compound 0.03 µM) 98.5% | viability, T/C (second compound 0.316 µM, first compound 0.0949 µM) 122% | viability, T/C (second compound 0.316 µM, first compound 0.3 µM) 99.9% | viability, T/C (second compound 1 µM, first compound 0.000949 µM) 105% | viability, T/C (second compound 1 µM, first compound 0.003 µM) 101% | viability, T/C (second compound 1 µM, first compound 0.00949 µM) 97.7% | viability, T/C (second compound 1 µM, first compound 0.03 µM) 94% | viability, T/C (second compound 1 µM, first compound 0.0949 µM) 130% | viability, T/C (second compound 1 µM, first compound 0.3 µM) 84.5% | viability, T/C (second compound 3.16 µM, first compound 0.000949 µM) 108% | viability, T/C (second compound 3.16 µM, first compound 0.003 µM) 94.5% | viability, T/C (second compound 3.16 µM, first compound 0.00949 µM) 98.1% | viability, T/C (second compound 3.16 µM, first compound 0.03 µM) 104% | viability, T/C (second compound 3.16 µM, first compound 0.0949 µM) 120% | viability, T/C (second compound 3.16 µM, first compound 0.3 µM) 79.3% | viability, T/C (second compound 10 µM, first compound 0.000949 µM) 152% | viability, T/C (second compound 10 µM, first compound 0.003 µM) 192% | viability, T/C (second compound 10 µM, first compound 0.00949 µM) 181% | viability, T/C (second compound 10 µM, first compound 0.03 µM) 205% | viability, T/C (second compound 10 µM, first compound 0.0949 µM) 196% | viability, T/C (second compound 10 µM, first compound 0.3 µM) 86.7%

Source: PubChem BioAssay AID1963435 (Molecular Pharmacology Branch, DTP, NCI, 2024)
